Source: patent US8148354B2, “Use of 20(S)-protopanaxadiol in manufacture of antidepressants” (priority 2006, dated 2012)
Marks after values point to notes of the source that are not given here.

Assays:
[1] = tested on: Levodopa Behavior in Mice; test: Enhancement of the behavioral effects of levodopa on mice; assay type: in vivo, Kunming mice; details: 10 mice per group
Experimental: Seventy male Kunming mice, 8-9 weeks old and weighing 18-22 g, were randomly divided by weight […] into 7 groups and administered a single dose by gavage as shown in Table 14. Sixty minutes later, levodopa at a dose of 200 mg/kg (the maximal dose not inducing running in mice) was administered i. p. Then, mice were put into separate cages and observed for 30 minutes. The number of running mice was recorded. Fisher's exact test was used for statistical analysis.

[2] = tested on: Reserpine-Induced Akinesia in Mice; test: Inhibition of akinesia induced by reserpine; assay type: in vivo, Kunming mice; details: reserpine 2.5 mg/kg i.p., 10 mice per group
Experimental: Fifty male Kunming mice, 8-9 weeks old and weighing 18-22 g, were randomly divided by weight into 5 groups, and administered by gavage a single dose of one of the drugs listed in Table 5 for 10 consecutive days. Sixty minutes after the last dose, mice were given a reserpine injection (2.5 mg/kg) delivered i. p. Sixty minutes later, mice were individually placed on the center of a round filter paper 7.5 cm in diameter. After a 30-sec observation, the number of animals that were still on the filter paper was recorded. Fisher's exact test was used for statistical analysis.

[3] = tested on: mice in the forced swimming test; test: Forced swimming test using mice; assay type: in vivo, Kunming mice; details: mean ± SD
Experimental: Fifty male Kunming mice, 9-10 weeks old and weighing 22-24 g, were randomly divided by weight into 5 groups and administered by gavage a single dose of one of the drugs listed in Table 6. Sixty minutes later, the mice were placed in individual beakers (2500 ml, 20 cm×14 cm in diameter), which had previously been filled with water (25° C.) up to 10 cm from the bottom. The duration of immobility in the last 4 minutes in the 6-min swimming test was recorded (the term immobility indicates no movement except for respiration). T-test was used for statistical analysis.
Fifty male Kunming mice, 8-9 weeks old and weighing 18-22 g, were randomly divided by weight into 5 groups and subjected to gavage once a day for 10 consecutive days as shown in Table 7. Sixty minutes after the last dose, the mice were individually placed in beakers (2500 ml, 20 cm×14 cm in diameter), which had previously been filled with water (25° C.) up to 10 cm from the bottom. The cumulative time of immobility in the last 4 minutes of a total swimming time of 6 minutes was recorded (the term immobility indicates no movement except for respiration). T-test was used for statistical analysis.

5-HT Re-uptake = test: 5-HT re-uptake test ([14C]-5-HT, hypothalamus homogenate); assay type: biochemical, SD rats
Experimental: Eight male SD rats were decapitated. The hypothalamuses were rapidly removed, weighed and homogenized in a 9-fold volume of 0.32 mol/L ice-cold sucrose solution, and centrifuged at a rate of 3420 rpm for 10 minutes at 0-4° C. […] Ten tubes were prepared for each group and all tubes were incubated at 37° C. for 5 minutes. […] CO2 chamber for 5 minutes, followed by centrifugation at a rate of 7,480 rpm for 10 minutes. The supernatant of the solution was put into a scintillation vial for counting after adding 10 ml scintillation fluid (scintillation was performed 3 times). The re-uptake of serotonin was calculated by the difference in DMP at 37° C. and 0° C.

| Compound | Number of running animals ([1]; 18 mg/kg × 1 i.g., with levodopa 200 mg/kg i.p.) | Number of running animals ([1]; 18 mg/kg × 1 i.g., without levodopa) | Number of animals Remaining on the filter paper for 30 seconds ([2]; 18 mg/kg × 10 i.g.) | Cumulative immobility within 4 minutes ([3]; multiple dose 18 mg/kg × 10 i.g.) [s] | Cumulative immobility within 6 minutes ([3]; single dose 18 mg/kg × 1 i.g.) [s] | Number of running animals ([1]; 3.75 mg/kg × 1 i.g., with levodopa 200 mg/kg i.p.) | Amount of re-uptake (5-HT Re-uptake; concentration 0.01 μg/ml) [dmp] | Inhibitory rate (5-HT Re-uptake; concentration 0.01 μg/ml) [%] | Amount of re-uptake (5-HT Re-uptake; concentration 0.1 μg/ml) [dmp] | Inhibitory rate (5-HT Re-uptake; concentration 0.1 μg/ml) [%] | Amount of re-uptake (5-HT Re-uptake; concentration 1 μg/ml) [dmp] | Inhibitory rate (5-HT Re-uptake; concentration 1 μg/ml) [%] | Amount of re-uptake (5-HT Re-uptake; concentration 10 μg/ml) [dmp] | Inhibitory rate (5-HT Re-uptake; concentration 10 μg/ml) [%] | Number of animals Remaining on the filter paper for 30 seconds ([2]; 3.75 mg/kg × 10 i.g.) | Number of animals Remaining on the filter paper for 30 seconds ([2]; 7.5 mg/kg × 10 i.g.) |
| --- | --- | --- | --- | --- | --- | --- | --- | --- | --- | --- | --- | --- | --- | --- | --- | --- |
| CNCCC(Oc1ccc(C(F)(F)F)cc1)c1ccccc1 (stereo not shown) [Fluoxetine, reference compound] | 7** | 0 | 3** | 81.50 ± 36.77 | 86.20 ± 32.56 |  |  |  |  |  |  |  |  |  |  |  |
| CC(C)=CCC[C@](C)(O)[C@H]1CC[C@]2(C)[C@@H]1[C@H](O)C[C@@H]1[C@@]3(C)CC[C@H](O)C(C)(C)[C@@H]3CC[C@]12C [20(S)-protopanaxadiol] |  |  |  |  |  | 2 | 4377.8 ± 479.7 | 11.7 | 4117.3 ± 532.0 | 17.0 | 3963.5 ± 459.4 | 20.1 | 3696.4 ± 392.9 | 25.5 | 8 | 7 |
